Oligonucleotides are written 5' to 3', each unit as a sugar letter and its base; * is a phosphorothioate linkage, no mark a phosphodiester; rarer units and linkages stand in square brackets, end groups in braces. Plain capitals give the bases only. d = 2'-deoxy (DNA); r = 2'-OH (RNA)
Target: DENND5A
Assay: reporter assay of Huesken 2005
Settings: siRNA
Further: test concentration or dose not given here.

Substance	normalised inhibition (eCFP-eYFP dual reporter) [%]
sense rGrGrGrArGrCrCrArGrArGrArUrCrArCrCrUrCdTdT / antisense rGrArGrGrUrGrArUrCrUrCrUrGrGrCrUrCrCrCdAdA	49.7
sense rGrGrGrCrArUrGrGrArUrGrArUrGrGrArArGrCdTdT / antisense rGrCrUrUrCrCrArUrCrArUrCrCrArUrGrCrCrCdTdT	54.4
sense rGrGrUrGrCrCrGrCrUrCrCrCrArCrCrUrCrCrUdTdT / antisense rArGrGrArGrGrUrGrGrGrArGrCrGrGrCrArCrCdTdC	39
sense rGrUrGrCrCrArGrArArCrUrUrGrGrGrGrArArGdTdT / antisense rCrUrUrCrCrCrCrArArGrUrUrCrUrGrGrCrArCdTdC	41.9
sense rGrUrUrUrArGrArUrArArUrGrArCrCrArGrArGdTdT / antisense rCrUrCrUrGrGrUrCrArUrUrArUrCrUrArArArCdGdC	51.4
sense rUrArUrGrArGrGrCrGrUrUrUrGrUrCrArUrCrCdTdT / antisense rGrGrArUrGrArCrArArArCrGrCrCrUrCrArUrAdAdT	44.9
sense rUrCrArCrUrGrCrCrArArCrCrCrArUrGrGrArUdTdT / antisense rArUrCrCrArUrGrGrGrUrUrGrGrCrArGrUrGrAdAdC	57.8
sense rUrCrArGrUrGrUrGrArUrGrArArGrArArGrArAdTdT / antisense rUrUrCrUrUrCrUrUrCrArUrCrArCrArCrUrGrAdAdC	75.2
sense rUrCrCrCrCrUrUrUrGrCrArUrUrCrCrUrArCrGdTdT / antisense rCrGrUrArGrGrArArUrGrCrArArArGrGrGrGrAdGdC	44.7
sense rUrCrUrCrCrUrGrCrArUrUrUrCrUrUrArGrArUdTdT / antisense rArUrCrUrArArGrArArArUrGrCrArGrGrArGrAdGdA	51.3
sense rUrCrUrGrArUrGrUrArCrUrUrUrCrCrArCrUrGdTdT / antisense rCrArGrUrGrGrArArArGrUrArCrArUrCrArGrAdCdT	47.9
sense rUrCrUrUrGrArUrUrCrArGrArArCrGrUrArGrGdTdT / antisense rCrCrUrArCrGrUrUrCrUrGrArArUrCrArArGrAdAdG	29.1
sense rUrCrUrUrUrCrArArUrGrCrCrGrUrCrGrArUrUdTdT / antisense rArArUrCrGrArCrGrGrCrArUrUrGrArArArGrAdCdA	52.7
sense rUrGrArArGrArGrGrUrGrArCrUrArGrCrArArGdTdT / antisense rCrUrUrGrCrUrArGrUrCrArCrCrUrCrUrUrCrAdTdA	68.6
sense rUrGrArArGrGrArArUrGrCrCrGrCrArArUrArAdTdT / antisense rUrUrArUrUrGrCrGrGrCrArUrUrCrCrUrUrCrAdGdC	77.7
sense rUrGrArArUrGrUrUrCrGrGrArCrArCrCrUrArCdTdT / antisense rGrUrArGrGrUrGrUrCrCrGrArArCrArUrUrCrAdAdC	49
sense rUrGrArUrCrUrCrCrUrGrGrArArArGrGrArUrCdTdT / antisense rGrArUrCrCrUrUrUrCrCrArGrGrArGrArUrCrAdCdA	44.1
sense rUrGrCrArArArArCrUrUrUrGrArUrArArArGrCdTdT / antisense rGrCrUrUrUrArUrCrArArArGrUrUrUrUrGrCrAdTdT	46

Substance	normalised inhibition (eCFP-eYFP dual reporter) [%]
sense rUrGrCrArGrGrArGrUrUrCrArArCrArUrCrArCdTdT / antisense rGrUrGrArUrGrUrUrGrArArCrUrCrCrUrGrCrAdAdT	62.5
sense rUrGrCrCrCrGrGrCrUrGrCrArArGrCrCrUrUrGdTdT / antisense rCrArArGrGrCrUrUrGrCrArGrCrCrGrGrGrCrAdAdT	56.4
sense rUrGrCrCrGrCrArArUrArArGrArCrCrArArGrAdTdT / antisense rUrCrUrUrGrGrUrCrUrUrArUrUrGrCrGrGrCrAdTdT	69.3
sense rUrGrCrCrGrCrUrCrCrCrArCrCrUrCrCrUrGrGdTdT / antisense rCrCrArGrGrArGrGrUrGrGrGrArGrCrGrGrCrAdCdC	24.9
sense rUrGrGrArUrGrArCrCrGrGrUrCrArArArGrCrUdTdT / antisense rArGrCrUrUrUrGrArCrCrGrGrUrCrArUrCrCrAdGdG	67.7
sense rUrGrGrGrGrUrCrUrArUrGrGrGrCrCrArArUrAdTdT / antisense rUrArUrUrGrGrCrCrCrArUrArGrArCrCrCrCrAdGdA	66.7
sense rUrGrUrUrUrGrCrArGrArUrUrArUrGrArGrGrCdTdT / antisense rGrCrCrUrCrArUrArArUrCrUrGrCrArArArCrAdTdC	38.5
sense rUrUrArCrCrArGrArGrArCrUrGrArUrGrArCrUdTdT / antisense rArGrUrCrArUrCrArGrUrCrUrCrUrGrGrUrArAdTdG	28.8
sense rUrUrCrArUrUrGrArCrArArCrArArArArUrArAdTdT / antisense rUrUrArUrUrUrUrGrUrUrGrUrCrArArUrGrArAdAdG	97.8
sense rUrUrCrCrUrArCrGrArGrCrUrUrCrUrUrArArGdTdT / antisense rCrUrUrArArGrArArGrCrUrCrGrUrArGrGrArAdTdG	59.8
sense rUrUrCrCrUrUrGrArUrUrCrGrUrGrUrGrCrUrGdTdT / antisense rCrArGrCrArCrArCrGrArArUrCrArArGrGrArAdTdT	22.1
sense rUrUrCrGrUrGrUrGrCrUrGrCrArGrArCrArUrUdTdT / antisense rArArUrGrUrCrUrGrCrArGrCrArCrArCrGrArAdTdC	40.2
sense rUrUrCrUrGrGrGrGrUrCrUrArUrGrGrGrCrCrAdTdT / antisense rUrGrGrCrCrCrArUrArGrArCrCrCrCrArGrArAdAdA	63.2
sense rUrUrGrArCrCrArArGrArUrGrCrArGrUrArGrGdTdT / antisense rCrCrUrArCrUrGrCrArUrCrUrUrGrGrUrCrArAdAdG	57.9
sense rUrUrGrArGrArArGrArArCrArUrUrCrArArArUdTdT / antisense rArUrUrUrGrArArUrGrUrUrCrUrUrCrUrCrArAdTdG	54.7
sense rUrUrGrCrArUrUrCrCrUrArCrGrArGrCrUrUrCdTdT / antisense rGrArArGrCrUrCrGrUrArGrGrArArUrGrCrArAdAdG	50.8
sense rUrUrUrCrArCrUrCrArGrArUrGrUrUrUrGrCrAdTdT / antisense rUrGrCrArArArCrArUrCrUrGrArGrUrGrArArAdCdG	42.4
sense rUrUrUrGrGrGrUrUrUrGrCrCrCrUrCrArCrArUdTdT / antisense rArUrGrUrGrArGrGrGrCrArArArCrCrCrArArAdTdG	73.4

Target: P2RX3
Assay: reporter assay of Huesken 2005
Settings: siRNA

Substance	normalised inhibition (eCFP-eYFP dual reporter) [%]
sense rArArCrCrGrArGrUrArGrUrUrCrArGrCrUrUrCdTdT / antisense rGrArArGrCrUrGrArArCrUrArCrUrCrGrGrUrUdGdA	62

— the OligoGym collection
